The subject of one data set is B16F10 mouse melanoma. Briefly: In vitro cytotoxicity (MTT), B16F10. Format: cell-based. Particulars: B16-F10, 72 h, read-out: In Vitro Cytotoxicity (IC50).
Data set [1] deals with P388-ADR(0.0), ADRIAMYCIN-resistant variant of P388. As to the kind of experiment: In vitro cytotoxicity (MTT), P388-ADR(0.0). Format: cell-based. The following applies: Mus musculus, 72 h, inoculum grown in drug-free medium, Table 2. Summed up: (§1)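 Cells seeded at 2,500 per well with two-fold compound dilutions, in triplicate, and incubated 3 days at 36 °C in 5% CO2. The P388-ADR(0.1) inoculum is grown in 0.1 mcg.ml ADRIAMYCIN, the (0.0) inoculum drug-free. MTT reduction read at 570 nm after DMSO solubilisation; IC50 calculated.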

Data set [2] concerns HCT-8 human colon cancer cell line. Briefly: In vitro cytotoxicity (MTT), HCT-8. Format: cell-based. Particulars: HCT-8, 72 h, read-out: In Vitro Cytotoxicity (IC50). The procedure: (§2) Metabolic activity was measured by the cells' ability to reduce the tetrazolium dye, 3-(4,5-dimethylthiazol-2-yl)-2,5-diphenyltetrazolium bromide (MTT), to a quantifiable colored formasan derivative. Surviving cells reduce the MTT dye. The inhibitory concentrations of killing 50% of the cells (IC50 s) were calculated. Testing was in accord with the following protocol:
(§3) Test compounds and a reference antineoplastic agent, ADRIAMYCIN (doxorubicin hydrochloride), were dissolved in dimethyl sulfoxide (DMSO) and diluted, first with Earle's Balanced Salt Solution, followed by culture medium, to twice the highest concentration of the compound to be tested. From this concentrated stock, two-fold serial dilutions were prepared in 96-well microtiter trays, each well containing twice the desired final concentration of the compound. Each concentration was tested in triplicate and compared to triplicate drug-free controls.
(§4) The cells were grown in the same medium used for diluting the compounds. Adherent cells were harvested by trypsinization according to the following procedure:
After harvesting by trypsinization, viable cell counts were determined and cell density was adjusted to 25,000 cells/mL. Inoculum (0.1 mL) was then added to each well for a final concentration of 2,500 cells per well. Addition of the inoculum was used to dilute the test compounds to the desired concentration. […]

For data set [3], the system named is P388 mouse leukemia cell line. Briefly: In vitro cytotoxicity (MTT), P388. Format: cell-based. The following applies: P388, 72 h, read-out: In Vitro Cytotoxicity (IC50). Put shortly:
as §1

Data set [4] relates to P388-ADR(0.1), ADRIAMYCIN-resistant variant of P388. As to the kind of experiment: In vitro cytotoxicity (MTT), P388-ADR(0.1). Particulars: Mus musculus, 72 h, inoculum grown with 0.1 mcg.ml ADRIAMYCIN, Table 2, ADR value marked *: single test. Format: cell-based. How it is done:
as §2, §3, §4
(§5) After harvesting by trypsinization, viable cell counts were determined and cell density was adjusted to 25,000 cells/mL. Inoculum (0.1 mL) was then added to each well for a final concentration of 2,500 cells per well. Addition of the inoculum was used to dilute the test compounds to the desired concentration.
(§6) Microtiter trays were incubated for three days at 36° C. in a humidified atmosphere containing 5% carbon dioxide.
After three days, 20 microliters of 5 mg/mL MTT in phosphate-buffered solution were added to each well of the microtiter trays. The microtiter trays were then returned to the incubator for two to four hours to allow the surviving cells to reduce the dye. After this incubation, both the medium and the unreduced dye were removed by aspiration. DMSO was added to each well to dissolve the water-insoluble, colored end product of the dye reduction for spectrophotometric measurement at 570 nm. […]

For data set [5], the system named is P388-D1 mouse leukemia cell line. As to the kind of experiment: In vitro cytotoxicity (MTT), P388-D1. Format: cell-based. Particulars: for IC50: Mus musculus, P388D1, 72 h, read-out: In Vitro Cytotoxicity (IC50), P388-D1. The procedure:
as §2, §3, §4, §5, §6
After three days, 20 microliters of 5 mg/mL MTT in phosphate-buffered solution were added to each well of the microtiter trays. The microtiter trays were then returned to the incubator for two to four hours to allow the surviving cells to reduce the dye. After this incubation, both the medium and the unreduced dye were removed by aspiration. DMSO was added to each well to dissolve the water-insoluble, colored end product of the dye reduction for spectrophotometric measurement at 570 nm.
The results obtained which clearly show the cytotoxicity of the compounds of Examples 5, 6, 7 and 8 against […] tumor cell lines A549, HCT-8, HT-29 and P388-D1, are illustrated in Table 1. (A549 is a human lung cancer cell line; HCT-8 is a human colon cancer cell line; HT-29 is a human colon cancer cell line; and P388-D1 is a mouse leukemia cell line.)

Data set [6] concerns A549 human lung cancer cell line. Briefly: In vitro cytotoxicity (MTT), A549. Particulars: A549, 72 h. The data set is classed as cell-based. Summed up:
(§7)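 Cells at 2,500 per well were exposed to two-fold serial compound dilutions in triplicate for three days at 36° C under 5% CO2, with doxorubicin as reference. MTT was added for 2–4 h, and the formazan was dissolved in DMSO and read at 570 nm. IC50 is the concentration killing 50% of cells relative to drug-free controls.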

For data set [7], the system named is HT-29 human colon cancer cell line. As to the kind of experiment: In vitro cytotoxicity (MTT), HT-29. The data set is classed as cell-based. Particulars: HT-29, 72 h. Put shortly:
as §7

The next data set can be described thus: Aqueous solubility. The data set is classed as physicochemical. Particulars: water. The text has this:
The effect of peptidyl substitution on the solubility of the compounds of the invention was examined by dissolving samples thereof in water.

Another data set has as its system P388 ascitic leukemia. Briefly: In vivo activity against systemic tumor P388. Particulars: five days. Also on record: species or system mouse. How it is done:
Prior to testing, P388 was propagated intraperitoneally in female DBA2 mice. The ascitic tumors were intraperitoneally injected in female B6 D2 F1 mice at a concentration of 10^6 cells per mouse. The mice were treated with antiumor agents administered once daily for five consecutive days, with the antineoplastic 5-fluorouracil used as a positive control.
All drugs were administered intraperitoneally in 5% aqueous dextrose or other suitable diluent. Drug efficacy was evaluated based on prolongation of mean survival time (MST). Improvement of MST was calculated as % MST(T/C), the percent ratio of mean survival times of test (T) versus control (C) mice. Compounds having % MST(T/C) values greater than 125 are considered to have significant activity. The antitumor activity of the two compounds in the P388 systemic leukemia model is illustrated in Table 3 below.

In the next data set the test system is M5076 ovarian sarcoma. Briefly: In vivo activity against M5076 ovarian sarcoma implanted subcutaneously. Also on record: species or system mouse. Particulars: IP every 2 days, days 1-11. The procedure:
For M5076 ovarian sarcoma, the solid tumor was implanted subcutaneously into mice on day 0. The compound to be tested (the compound of Example 8) was administered IP every 2 days up to day 11, starting on day 1. Both % MST(T/C) and % MTM(T/C) values were calculated, and are presented below.

Data set [8] has as its system C-26 colon adenocarcinoma. Briefly: In vivo activity against C-26 colon adenocarcinoma implanted IP (Example 42). Also on record: species or system mouse. Particulars: dose 40, IP days 1, 5, 9. The procedure:
In the case of C-26 colon adenocarcinema, the tumor was implanted IP into mice on day 0. The compound to be tested. (the compound of Example 8) was administered IP at days 1, 5, and 9 and the results recorded on day 60. % MST(T/C) values were calculated as before and are shown below for two separate trials.

Setting [9] is: Table 2, ADR value marked *: single test.
The mark [10] stands for this setting: read-out: In Vitro Cytotoxicity (IC50), A549, Table 2, ADR: average of two tests.
Setting [11] is: read-out: In Vitro Cytotoxicity (IC50), HT-29, Table 2, ADR: average of two tests.
Setting [12] is: read-out: In Vitro Cytotoxicity (IC50), A549, Table 1, three day MTT assay.

Counter-ions that a name gives are not always drawn. Like-named read-outs stand apart in the source and are kept apart here.

As to `COc1cccc2c1C(=O)c1c(O)c3c(c(O)c1C2=O)C[C@@](O)(C(=O)CO)C[C@@H]3O[C@H]1C[C@H](N)[C@H](O)[C@H](C)O1` [ADR, doxorubicin hydrochloride, reference compound], the IC50 turned out to be 0.005 µg/mL in the data set with B16F10 mouse melanoma; 2.59 µg/mL in [1]; 0.038 µg/mL in data set [2]; 0.0022 µg/mL in data set [3]; 1.9 µg/mL in data set [4]; 0.016 µg/mL in [5] (Table 1, three day MTT assay). In addition, the IC50 in data set [5] (setting [9]) was 0.025 µg/mL; in data set [6] (setting [10]), 0.313 µg/mL; in data set [7] (setting [11]) it was 0.285 µg/mL. Besides, the “In Vitro Cytotoxicity (IC50)” value in [5] (P388-D1, Table 1, three day MTT assay, 4320 min, hydrochloride) was determined as 0.010.

`Cc1ccc2c(c1)Oc1c(N3CCC(N)C3)c(F)cc3c(=O)c(C(=O)O)cn-2c13` (stereo not shown) [Example 6, 1-(3-aminopyrrolidin-1-yl)-2-fluoro-9-methyl-4-oxo-4H-quino[2,3,4-i,j][1,4]benzoxazine-5-carboxylic acid hydrochloride]: the IC50 with B16F10 mouse melanoma is 0.056 µg/mL; in data set [1] it was 0.2 µg/mL; in data set [3] it was 0.071 µg/mL; in data set [4], 0.2 µg/mL; in data set [5] (Table 1, three day MTT assay), 0.067 µg/mL; in data set [5] (setting [9]), 0.08 µg/mL. Moreover, the 50% inhibitory concentration (IC50) in data set [6] (setting [12]) was determined as 0.13 µg/mL; in [6] (setting [10]), 0.23 µg/mL; in [7] (read-out: In Vitro Cytotoxicity (IC50), HT-29, Table 1, three day MTT assay), 0.049 µg/mL; in [7] (setting [11]), 0.076 µg/mL.

On to `CCC[C@H](N)C(=O)NC1CCN(c2c(F)cc3c(=O)c(C(=O)O)cn4c3c2Oc2ccccc2-4)C1` (stereo partly shown) [Example 8, 1-(3-norvalylaminopyrrolidin-1-yl)-2-fluoro-4-oxo-4H-quino[2,3,4-i,j][1,4]benzoxazine-5-carboxylic acid hydrochloride], for which the solubility in the data set “Aqueous solubility” worked out at 10.7 mg/mL. In addition, the “% MST(T/C)” value in the data set with P388 ascitic leukemia (3.9 mg/kg IP once daily) is given as 177.3%; in the data set with P388 ascitic leukemia (7.81 mg/kg IP once daily), 200.0%; in the data set on P388 ascitic leukemia (15.62 mg/kg IP once daily), 209.1%; in the data set on P388 ascitic leukemia (31.25 mg/kg IP once daily), 63.6%. Besides, the IC50 with B16F10 mouse melanoma was 0.0271 µg/mL; in [1], 0.394 µg/mL; in data set [2], 0.075 µg/mL; in data set [3], 0.0395 µg/mL; in [5] (Table 1, three day MTT assay), less than 0.05 µg/mL; in [6] (setting [12]), 0.512 µg/mL. Besides, the figures for the 50% inhibitory concentration (IC50) in data set [6] (setting [10]) and in [7] (setting [11]) were 0.591 µg/mL and 0.195 µg/mL, respectively. Further, the “M5706 % MST(T/C)” value in the data set on M5076 ovarian sarcoma (dose 5) worked out at 148.4%; with M5076 ovarian sarcoma (dose 10), 154.4%; in the data set with M5076 ovarian sarcoma (dose 20) it was 138.1%; in the data set on M5076 ovarian sarcoma (dose 40), 39.1%. Further, the M5706 % MTM(T/C) in the data set with M5076 ovarian sarcoma (dose 5) is 62%; in the data set with M5076 ovarian sarcoma (dose 10), 49%; in the data set with M5076 ovarian sarcoma (dose 20) it was 22%. Further, the “C-26 % MST(T/C)” value in data set [8] (first trial) stood at 52.3%; in [8] (second trial) it was 43.9%.

Turning to `Cc1ccc2c(c1)Oc1c(N3CCC(NC(=O)[C@H](C)N)C3)c(F)cc3c(=O)c(C(=O)O)cn-2c13` (stereo partly shown) [Example 9, 1-(3-alanylaminopyrrolidin-1-yl)-2-fluoro-9-methyl-4-oxo-4H-quino[2,3,4-i,j][1,4]benzoxazine-5-carboxylic acid hydrochloride], the IC50 with B16F10 mouse melanoma was 0.048 µg/mL; in [1], 0.19 µg/mL; in data set [3], 0.062 µg/mL; in data set [4], 0.18 µg/mL; in data set [5] (setting [9]), 0.081 µg/mL; in data set [6] (setting [10]) it was 0.23 µg/mL. Besides, in data set [7] (setting [11]), the IC50 was determined as 0.075 µg/mL.

(Values after patent US5624924A, “Quinobenzothiazine antineoplastic agents” (priority 1994, dated 1997).)
